Reference: patent publication US11529342B2, “Sorbic and benzoic acid and derivatives thereof enhance the activity of a neuropharmaceutical” (Los Angeles Biomedical Research Institute at Harbor-UCLA …, priority 2009, dated 2022)
“Also recorded” adds a separate entry of the source.

Tests used:
rats = test: Forced swim test (FST); type: in vivo; conditions: 500 mg/kg; for Immobility time (%): 5-min test, vehicle 46.94 ± 4.6; for duration of immobility compared to the vehicle control group: FST
Description: Following acclimation at least 7 days in the animal facility prior to initiation of behavioral testing, the animals (rats) were subjected to the forced swim test (FST). The method of the […] has been used in previous animal studies of depression, which was modified by Cryan from the Porsolt's FST. (Porsolt et al, 1977; Cryan et al, 2002) The test was performed using a acrylic cylinder (diameter, 20 cm; height, 40 cm) filled to a height of 30 cm with 25° C. water. Rats were processed to a 15-min conditioning swim. Following 24 h after their first exposure, the rats were again placed in the swim apparatus for 5 min. The behavior of rats was observed 5 min after the administration of various drug treatments or 0.9% saline (control). All behavioral testing was conducted between 1600-1800 h. On. the study day, the total periods of immobility during the 5-min testing period were recorded using the EthoVision Basic V 3.1 analysis program (Noldus, Wageningen, Netherlands). For the present experiment, the immobility threshold was set at 15% and a fixed averaging interval of 1 second was chosen to smooth the mobility parameter in EthoVision software. Below the immobile threshold, the animal is considered immobile. Using the settings, the activity of all rats was analyzed automatically and quantitatively for mobility and numbers of crossing vertical central line in the FST.

schizophrenia patients [1] = test: 6-week add-on trial in schizophrenia, safety and side-effect assessments; type: in vivo, human; conditions: 6 weeks
Text: All patients were then randomly assigned under double-blind conditions to receive a 6-week trial of placebo, or sodium benzoate (1 grams) daily. Patients were randomized in clusters of six subjects, without stratification, through a computer-generated randomization table to receive placebo or active drugs in a 1:1 ratio. To ensure concealment of the randomization assignment, study medication was provided in coded containers with supply of identical-appearing capsules of placebo or either of active compounds. The research pharmacist implemented random allocation and masked treatment assignment was communicated by telephone to research staff. Patients, caregivers, and investigators (except for the investigational pharmacist) were all masked to the assignment. Patient's compliance and safety were closely monitored by the research psychiatrists and the inpatient nursing staff.
Side-effect assessments included Simpson-Angus Rating Scale for EPS (6), Abnormal Involuntary Movement Scale (AIMS) for dyskinesia (7), and Barnes Akathesia Scale (8). Systemic side effects of treatments were evaluated by means of routine physical and neurological examinations, laboratory tests, and reviewed by applying the Udvalg for Kliniske Undersogelser (UKU) Side-effects Rating Scale (9).

schizophrenia patients [2] = test: 6-week randomized double-blind placebo-controlled add-on trial in schizophrenia, efficacy (PANSS, SANS, Quality of Life, GAF); type: in vivo, human; conditions: 1000-mg/day adjunctive to atypical antipsychotics, 6 weeks, n=18 per group
Description: The research protocol was approved by the Institutional Review Boards (IRB) of the institute. Patients were screened and evaluated by the research psychiatrists. After complete description of the study to the subjects, written informed consent was obtained in line with the IRB's guidelines. The Structured Clinical Interview for DSM-IV was conducted for the diagnosis.
The dosing for the concurrent antipsychotics (all atypical antipsychotics), was an optimal dosing strategy which minimize side effects, especially extrapyramidal side effects (EPS), and can still yield favorable efficacy. […]
All patients were then randomly assigned under double-blind conditions to receive a 6-week trial of placebo, or sodium benzoate (1 grams) daily. […] Patient's compliance and safety were closely monitored by the research psychiatrists and the inpatient nursing staff.
The primary outcome measures were psychopathology changes measured by PANSS (3) and, Scales for the Assessment of Negative symptoms (SANS) (4) total scores, Quality of Life scale (10 items for inpatient use) (1, 5), and Global Assessment of Function (Axis V in DSM IV) (2). […]
Clinical ratings were performed by the research psychiatrists who were trained and experienced in the rating scales. Inter-rater reliability was analyzed with the ANOVA test. […]

Male 129 SVE adult mice [3] = test: Prepulse inhibition (PPI) of acoustic startle, amphetamine disruption; type: in vivo; conditions: for PPI, correction of disruption by amphetamine: sarcosine 200 mg/kg, benzoate 100 mg/kg or both, amphetamine 10 mg/kg 30 minutes before
Text: (§1) Therefore, to test the hypothesis that combinational NMDA-enhancing agent treatment has better efficacy than individual agent alone, we tested startle habituation and PPI in animals receiving single NMDA-enhancing agents, sarcosine (N-methylglycine, a glycine transporter-1 inhibitor), benzoate (a D-amino acid oxidase inhibitor), the combination of both agents or the vehicle. We also tested the hypothesis in a well accepted pharmacological model of schizophrenia, amphetamine--disruption of startle habituation and PPI.
For the systematic investigation of the neurobiological systems that modulate sensorimotor inhibition, startle magnitude was investigated. Startle magnitude is reduced when the pulse stimulus is preceded 30 to 500 msec by a weak prepulse. This inhibition (“gating”) of a motor response elicited by a weak sensory event, termed PPI, provides an operational measure of sensorimotor gating. Prepulse stimuli of 3, 6, or 12 dB above the 70 dB background noise inhibit the startle response elicited by 120-dB pulse stimuli.
Prestimuli used in intranodal studies of sensorimotor gating of acoustic startle are by the delivery of a discrete acoustic prepulse several msec before the startle pulse, with an intensity below startle threshold. […]
There were a total of 36 trials in the experiments. […] For each mouse the following metrics were determined: 1) Average response magnitude on pulse--only trials 1 to 6 and 32 to 36; 2)Average response magnitude in each of the four trial types between trials 7 and 31 inclusively (i.e., ten pulse-only trials and five each of the three prepulse variations). The first block of pulse-only trials were analyzed as measures of startle reactivity. The first and last blocks of pulse-only trials were analyzed together in a repeated measure ANOVA to assess habituation of acoustic startle across the test session. The […] (3, 6, or 12 dB above background) derived from trials 7 to 31 were used to assess PPI which was calculated for each mouse as: Percentage score: PPI=100%×{[pulse-only units−(prepulse pulse units)]/(pulse-only units)}. […]

Male 129 SVE adult mice [4] = test: Acoustic startle habituation in mice, with and without amphetamine disruption; type: in vivo; conditions: for startle habituation, correction of amphetamine-induced disruption: amphetamine 10 mg/kg 30 minutes before the experiment
Text: as §1
For habituation, we present six trials of a single acoustic stimulus to each mouse. To provide a consistent acoustic environment and to mask external noises, maintain a continuous background noise level of 70 dB within each startle chamber. We collected the peak or average response from each mouse on each of six trials, then averaged the six responses together for each mouse. Five more trials at the end of PPI were done. The results were averaged and compared to the original six trials. The difference of startle responses between the initial six and the last five trials were considered the amount of habituation. Analyses include the independent variable (e.g., vehicle or drug treatment) as a factor in analyses of variance (ANOVA) on the dependent measures (difference of the average of the first and last […]).
There were a total of 36 trials in the experiments. The three prepulse stimuli were with a duration of 20 msec. For each mouse the following metrics were determined: 1) Average response magnitude on pulse--only trials 1 to 6 and 32 to 36; 2)Average response magnitude in each of the four trial types between trials 7 and 31 inclusively (i.e., ten pulse-only trials and five each of the three prepulse variations). The first block of pulse-only trials were analyzed as measures of startle reactivity. The first and last blocks of pulse-only trials were analyzed together in a repeated measure ANOVA to assess habituation of acoustic startle across the test session. The […] (3, 6, or 12 dB above background) derived from trials 7 to 31 were used to assess PPI which was calculated for each mouse as: Percentage score: PPI=100%×{[pulse-only units−(prepulse pulse units)]/(pulse-only units)}.
Male 129 SVE adult mice were first tested at baseline. Four groups of 10 mice each were treated with sarcosine (200 mg/kg), benzoate (100 mg/kg), a combination of both sarcosine and benzoate (same doses as the individual treatment), or with vehicle for one week before the test. The mice continued to receive the drug until one week later when amphetamatine (10 mg/kg) was administered 30 minutes before the experiments.

[5] = mice, sarcosine 200 mg/kg, benzoate 100 mg/kg or both

Row | SMILES | Immobility time (%) (rats) | duration of immobility compared to the vehicle control group (rats) | PPI, correction of disruption by amphetamine (Male 129 SVE adult mice [3]) | startle habituation, correction of amphetamine-induced disruption (Male 129 SVE adult mice [4]; [5]) | other results
1 | C/C=C/C=C/C(=O)[O-].[K+] [Potassium Sorbate, potassium sorbate] | 27.64 ± 6.2 | decrease the duration of immobility significantly |  |  | 
2 | O=C([O-])c1ccccc1.[Na+] [Sodium Benzoate, sodium benzoate] | 40.17 ± 3.3 | decrease the duration of immobility significantly | partially corrected | partially correct the deficit; also recorded: better than sarcosine and close to effect seen in the combination treatment; also recorded: only partially corrected the deficit; also recorded: better than sarcosine and close to that seen in the combination treatment | safety and tolerability (schizophrenia patients [1]; adjunctive therapy): good safety and tolerability; treatment-emergent side effects (schizophrenia patients [1]; benzoate versus placebo): all mild, short-lived, and not warranting medical treatment; positive and negative symptoms and quality of life versus placebo (schizophrenia patients [2]): significantly improve positive and negative symptoms and quality of life than placebo; startle habituation (difference of startle responses between initial and last trials) (Male 129 SVE adult mice [4]; mice treated one week, sarcosine 200 mg/kg, benzoate 100 mg/kg or both, no amphetamine): close to the effect seen in the combination treatment
3 | CNCC(=O)O [sarcosine, N-methylglycine, reference compound] |  |  | partially corrected | combination treatment>benzoate>sarcosine | startle habituation, correction of amphetamine-induced disruption (Male 129 SVE adult mice [4]; mice, sarcosine 200 mg/kg, benzoate 100 mg/kg or both, listed as NMG): partially correct the deficit; also recorded: only partially corrected the deficit
4 | CC(N)Cc1ccccc1 (stereo not drawn) [amphetamine, reference compound] |  |  |  |  | effect of amphetamine on PPI (Male 129 SVE adult mice [3]; amphetamine 10 mg/kg 30 minutes before the experiments): disrupted the inhibition in all treatments; effect of amphetamine on startle habituation (Male 129 SVE adult mice [4]; mice, amphetamine 10 mg/kg 30 minutes before the experiments): disrupted the habituation
